Structures can show the parent of a compound that is named as a salt.
Tested on: Conditioned Avoidance Responding (Rat)
Experiment: Block of Conditioned Avoidance Responding (Rat) test (CAR)
Assay type: in vivo, Male Fischer 344 rats
Settings: for % escape loss: group mean % failures to escape; for % Inhibition CAR: mean % change in CAR vs vehicle day, negative = blockade
Text: The antipsychotic activity of the compounds of the invention may be determined by the Block of Conditioned Avoidance Responding (Rat) test (CAR), the references being Cook, L. and E. Weidley in Ann. […] P. Reynolds Trends Pharmacol. Sci. 1992, 13, 116). […] Block of Conditioned Avoidance Responding (Rat) Apparatus: Rat operant chambers, housed within sound attenuated booths, both from […] Instruments Ltd., were used in this test. The test chamber (8" H×903/8" W×9" D) is constructed of aluminum and plexiglass with floor grid bars of stainless-steel (1/8" O.D.) spaced 9/16" apart. A stainless-steel operation level 11/2" wide projects 3/4" into the chamber and is positioned 2-2/8" above the grid floor. The shock stimulus is delivered via the grid floor by a Coulbourn Instruments solid state module. The parameters of the test and the collection of data are controlled automatically. Training: Male, Fischer 344 rats obtained from Charles River (Kingston, N.Y.) weighing more than 200 g, are individually housed with chow and water provided ad libitum. The rats are trained for two weeks to approach criterion levels in the avoidance test (90% avoidance rate). One-hour training sessions are run at about the same time each day for four or five days a week. The training session consists of 120 tdals, with the conditioned stimuli presented every 30 sec. A trial begins with presentation of the conditioned stimuli (a light and a tone). If the rat responds by depressing the operant lever during the 15-second presentation of the conditioned stimuli, the trial is terminated .and the animal is credited with a CAR. Failure to respond during the conditioned stimuli causes the presentation of the unconditioned stimulus (UCS), a 0.7 mA shock which is accompanied by a light and tone for […]. If the rat depressed the lever within the ten-second period, the shock and trial are terminated and an escape response recorded. If the rat fails to depress the lever during the UCS (shock), the trial is terminated after ten seconds of shock and the absence of a response is scored as a failure to escape. […] presses have no effect. If a rat performs at the 90% CAR level for two weeks, it is then run twice a week on the test schedule (see below) until baseline performance stabilized. Before any drug is administered, two weeks of CAR at a rate of 90% or better is required. Determination of ED50 Values Trained rats are run in a one-hour session on two consecutive days at the same time and in the same test chamber each day. The sessions consist of 60 trials, one every minute. The conditioned stimuli are presented for 15 sec (maximum) and the unconditioned stimuli five sec (maximum). On Day 1, a vehicle solution is administered to the rats at a time preceding the trial run corresponding to the pretreatment time for the test compound. The route of administration and the volume of vehicle are also matched to that of the test compound. […] The percent change in CAR on the drug treatment day compared to vehicle pretreatment day is the key measure. The percent change (% change) in CAR is determined using the following formula: % change CAR=((Day 2% CAR/Day 1% CAR)×100)-100 A negative number indicates a blockade of CAR, whereas a positive number would indicate increased CAR. The test results are reported as the mean % change for the group of rats. A reading of -20% is generally taken to represent a minimum value for a compound to be designated as active at a given dose in the CAR test. Failure to escape was calculated for each animal as follows: % Failures=# of Failures to Escape/# of trials The % failures, viz., loss of escape, is also reported as a group mean. Failures to escape are monitored closely and a session is terminated if ten failures occurred. ED50 values and 95% confidence limits are calculated using linear regression analysis.

## CC(C)Oc1ccccc1N1CCN(Cc2cccc(CN3CCCCC3=O)n2)CC1 [CP #7, 1-[[6-[[1-[2-(Methylethoxy)phenyl]-4-piperazinyl]methyl]pyridinyl]methyl]-2-piperidinone Hydrochloride]
15 mpk
  % escape loss: 0%
  % Inhibition CAR: -85%

## CC(C)Oc1ccccc1N1CCN(Cc2ccc(C(=O)N3CCCCC3)s2)CC1.O=C(O)/C=C/C(=O)O [CP #1, 1-[[5-[[1-[2-(1-Methylethoxy)phenyl]-4-piperazinyl]methyl]-2-thienyl]carbonyl]piperidine Fumarate]
5 mpk, PI
  % escape loss: 18%
  % Inhibition CAR: -56%

## CC(C)Oc1ccccc1N1CCN(Cc2cc(C(=O)N3CCCCCC3)cs2)CC1 [CP #4, Hexahydro-1-[5-[[-1-[2-(1-Methylethoxy)phenyl-4-piperazinyl]methyl]-3-thienyl]carbonyl]-1-H-azepine Hydrochloride Hydrate]
5 mpk, PI
  % escape loss: 3%
  % Inhibition CAR: -41%

## CC(C)Oc1ccccc1N1CCN(Cc2ccc(C(=O)N3CCCCCC3)s2)CC1 [CP #3, Hexahydro-1-[[5-[[1-[2-(1-methylethoxy)phenyl]-4-piperazinyl]methyl]2-thienyl]carbonyl]-1H-azepine Monohydrochloride Hemi Hydrate]
5 mpk, PI
  % escape loss: 3%
  % Inhibition CAR: -8%

## CC(C)Oc1ccccc1N1CCN(Cc2cc(C(=O)N3CCCCC3)cs2)CC1.Cl [CP #2, 1-[[5-[[1-[2-(1-Methylethoxy)phenyl]-4-piperazinyl]methyl]-3-thienyl]carbonyl]piperidine Monohydrochloride]
5 mpk, PI
  % escape loss: 34%
  % Inhibition CAR: -72%

## O=C1CCCCN1Cc1ccc(CN2CCN(c3cccc4ccoc34)CC2)s1 [CP #6, 1-[[5-[[1-(7-Benzofuranyl)-4-piperazinyl]methyl]-2-thienyl]methyl]-2-piperidinone1.5 Fumarate Hydrate]
5 mpk, PI
  % escape loss: 5%
  % Inhibition CAR: -63%

## CC(C)Oc1ccccc1N1CCN(Cc2ccc(CN3CCCCC3=O)s2)CC1 [CP #5, 1-[[5-[[1-[2-(1-Methylethoxy)phenyl-4-piperazinyl]methyl]-2-thienyl]methyl]-2-piperidinone Hydrochloride]
5 mpk, PI
  % escape loss: 3%
  % Inhibition CAR: -58%
